# Laboratory results taken from patent US7935707B2, “Imidazole derivatives” (Hoffman-La Roche Inc., priority 2007, dated 2011).
# Target: T1, human chemokine receptor 2 isoform B (Homo sapiens, UniProt P41597)
# T1 construct: host or cells: CHOK1-CCR2B-A5 (CHO-K1)
# T1 sequence (P41597 1-360 isoform P41597-2): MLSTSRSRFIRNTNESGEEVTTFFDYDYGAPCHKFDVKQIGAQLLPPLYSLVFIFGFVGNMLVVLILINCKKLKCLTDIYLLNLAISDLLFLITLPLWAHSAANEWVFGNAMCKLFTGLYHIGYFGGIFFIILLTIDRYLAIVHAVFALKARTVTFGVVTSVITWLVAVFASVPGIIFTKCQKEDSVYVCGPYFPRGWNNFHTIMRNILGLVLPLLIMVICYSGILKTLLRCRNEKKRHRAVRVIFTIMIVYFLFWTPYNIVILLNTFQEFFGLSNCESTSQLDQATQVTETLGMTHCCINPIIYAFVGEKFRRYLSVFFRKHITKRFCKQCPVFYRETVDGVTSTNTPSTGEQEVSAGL
# Assay: Calcium mobilization assay
# Type: cell-based
# Details: CHOK1-CCR2B-A5 cells; antagonist activity against 20 nM MCP-1; FLIPR, Fluo-4
# Experimental: Calcium Mobilization Assay
# CHOK1-CCR2B-A5 cells (from Euroscreen) stably overexpressing the human chemokine receptor 2 isoform B were cultured in Nutrient Hams F12 medium supplemented with 5% FBS, 100 U/ml penicillin, 100 μg/ml streptomycin, 400 μg/ml G418 and 5 μg/ml puromycin. For the assay cells were grown overnight in 384-well black clear flat bottom polystyrene plates (Costar) at 37° C. at 5% CO2. After washing with DMEM, 20 mM Hepes, 2.5 mM probenecid, 0.1% BSA (DMEM assay buffer) cells were loaded with 4 μM Fluo-4 in the same DMEM assay buffer for 2 hours at 30° C. Excess dye was removed and cells were washed with DMEM assay buffer. 384-well compound plates were prepared with DMEM assay buffer/0.5% DMSO with or without various concentrations of test compounds. Usually compounds were tested for agonist and antagonist activity.
# Test compounds were added to the assay plate and agonist activity was monitored as fluorescence for 80 seconds with a FLIPR (488 nm excitation; 510-570 nm emission; Molecular Devices). After 20-30 min. of incubation at 30° C., 20 nM MCP-1 (R&D; Roche) was added and fluorescence was monitored again for 80 seconds. Increases in intracellular calcium are reported as maximum fluorescence after agonist exposure minus basal fluorescence before exposure. Antagonist activity is indicated as inhibitor concentration required for 50% inhibition of specific calcium increases.
row,IC50 [nM],Compound
1,120,"CCCCCCc1cccc(-c2nc(I)c(C(=O)N3CCC(N(CC)CC)C3)n2C)c1 (racemic) [Example 1, (rac)-(3-Diethylamino-pyrrolidin-1-yl)-[2-(3-hexyl-phenyl)-5-iodo-3-methyl-3H-imidazol-4-yl]-methanone]"
2,160,"Cn1c(-c2cccc(OC(F)(F)F)c2)nc(I)c1C(=O)N1CCC(N2CCC[C@@H]2CO)CC1 [Example 46, [4-((R)-2-Hydroxymethyl-pyrrolidin-1-yl)-piperidin-1-yl]-[5-iodo-3-methyl-2-(3-trifluoromethoxy-phenyl)-3H-imidazol-4-yl]-methanone]"
3,35,"C#Cc1nc(-c2cccc(CCCCCC)c2)n(C)c1C(=O)N1CCC(N2CCCC2)CC1 [Example 13, [5-Ethynyl-2-(3-hexyl-phenyl)-3-methyl-3H-imidazol-4-yl]-(4-pyrrolidin-1-yl-piperidin-1-yl)-methanone]"
4,18,"Cn1c(-c2cccc(C(F)(F)F)c2)nc(I)c1C(=O)N1CCC(N2CCCC2)CC1 [Example 36, [5-Iodo-3-methyl-2-(3-trifluoromethyl-phenyl)-3H-imidazol-4-yl]-(4-pyrrolidin-1-yl-piperidin-1-yl)-methanone]"
5,71,"CCc1nc(-c2cccc(OC(F)(F)F)c2)n(C)c1C(=O)N1CCC(N2CCCC2)CC1 [Example 25, [5-Ethyl-3-methyl-2-(3-trifluoromethoxy-phenyl)-3H-imidazol-4-yl]-(4-pyrrolidin-1-yl-piperidin-1-yl)-methanone]"
6,130,"CCCCCCc1cccc(-c2nc(I)c(C(=O)N3CCCN(CCO)CC3)n2C)c1 [Example 3, [2-(3-Hexyl-phenyl)-5-iodo-3-methyl-3H-imidazol-4-yl]-[4-(2-hydroxy-ethyl)-[1,4]diazepan-1-yl]-methanone]"
7,75,"CCCCCCc1cccc(-c2nc(C#N)c(C(=O)N3CCC(N4CCCC4)CC3)n2C)c1 [Example 18, 2-(3-Hexyl-phenyl)-1-methyl-5-(4-pyrrolidin-1-yl-piperidine-1-carbonyl)-1H-imidazole-4-carbonitrile]"
8,90,"Cn1c(-c2cccc(OC(F)(F)F)c2)nc(-c2cncnc2)c1C(=O)N1CCC(N2CCCC2)CC1 [Example 22, [3-Methyl-5-pyrimidin-5-yl-2-(3-trifluoromethoxy-phenyl)-3H-imidazol-4-yl]-(4-pyrrolidin-1-yl-piperidin-1-yl)-methanone]"
